Results as given in ChEMBL document CHEMBL6127102 (Bioorg Med Chem, 2024).
pIC50: −log10 of the molar value. Activity calls are given as the source filed them. No cut-off for these calls is given here.

Tests used:
[1] = Toxicity in BALB/c nude mouse xenografted with human MDA-MB-231 cells assessed as body weight change at 20 mg/kg, ip administered on every 2 days for 28 days; type: organism-based; conditions: in vivo, 672 h, time 28 day
HCC1937 = assay: Antitumor activity against BRCA 1-deficient human HCC1937 cells incubated for 72 hrs by MTT assay; type: functional, cell-based; conditions: HCC1937, 72 h
MDA-MB-436 = assay: Antitumor activity against BRCA 1-deficient human MDA-MB-436 cells incubated for 72 hrs by MTT assay; type: functional, cell-based; conditions: MDA-MB-436, 72 h
MDA-MB-468 = assay: Antitumor activity against human MDA-MB-468 cells harboring wild-type BRCA incubated for 72 hrs by MTT assay; type: functional, cell-based; conditions: MDA-MB-468, 72 h
[2] = Toxicity in BALB/c nude mouse xenografted with human MDA-MB-231 cells assessed as drug tolerance at 20 mg/kg, ip administered on every 2 days for 28 days; type: organism-based; conditions: in vivo, 672 h, time 28 day
MDA-MB-231 [3] = assay: Antitumor activity against human MDA-MB-231 cells xenografted in BALB/c nude mouse assessed as increase in apoptotic cells at 20 mg/kg, ip administered on every 2 days for 28 days by H and E staining based analysis; type: functional, organism-based; conditions: time 28.0 day
[4] = Cytotoxicity against human MCF-10A cells incubated for 72 hrs by MTT assay; type: toxicity, cell-based
MDA-MB-231 [5] = assay: Antitumor activity against human MDA-MB-231 cells xenografted in BALB/c nude mouse assessed as decrease in Ki-67 expression at 20 mg/kg, ip administered on every 2 days for 28 days by H and E staining based analysis; type: functional, organism-based; conditions: time 28.0 day
MDA-MB-231 [6] = assay: Antitumor activity against human MDA-MB-231 cells harboring wild-type BRCA incubated for 72 hrs by MTT assay; type: functional, cell-based; conditions: MDA-MB-231, 72 h
MDA-MB-231 [7] = assay: Antitumor activity against human MDA-MB-231 cells xenografted in BALB/c nude mouse assessed as increase in necrotic cells at 20 mg/kg, ip administered on every 2 days for 28 days by H and E staining based analysis; type: functional, organism-based; conditions: time 28.0 day
MDA-MB-231 [8] = assay: Anti-migration activity in human MDA-MB-231 cells assessed as wound closure area at 1 uM incubated for 24 hrs by wound healing assay (reference value: 75.6 %); type: functional
MDA-MB-231 [9] = assay: Induction of apoptosis in human MDA-MB-231 cells as increase in red fluorescence at 5 uM incubated for 24 hrs by Calcein AM/PI staining based confocal microscopy; type: functional, cell-based
MDA-MB-231 [10] = assay: Induction of apoptosis in human MDA-MB-231 cells at 5 uM incubated for 24 hrs by Annexin V-FITC/PI staining based flow cytometry relative to control; type: functional
MDA-MB-231 [11] = assay: Effect on CRAF expression in human MDA-MB-231 cells at 5 uM incubated for 24 hrs by Western blot analysis; type: functional, cell-based
MDA-MB-231 [12] = assay: Induction of apoptosis in human MDA-MB-231 cells assessed as decrease in Bcl-2 level at 5 uM incubated for 24 hrs by Western blot analysis; type: functional, cell-based
MDA-MB-231 [13] = assay: Effect on RAF expression in human MDA-MB-231 cells at 5 uM incubated for 24 hrs by Western blot analysis; type: functional, cell-based
MDA-MB-231 [14] = assay: Induction of DNA damage in human MDA-MB-231 cells assessed as increase in gamma-H2AX level at 5 uM incubated for 24 hrs by immunofluorescence based analysis; type: functional, cell-based
MDA-MB-231 [15] = assay: Induction of ROS generation in human MDA-MB-231 cells at 5 uM incubated for 24 hrs by DCFH-DA staining based flow cytometric analysis; type: functional, cell-based
MDA-MB-231 [16] = assay: Effect on MEK phosphorylation in human MDA-MB-231 cells at 5 uM incubated for 24 hrs by Western blot analysis; type: functional, cell-based
[17] = target: Poly [ADP-ribose] polymerase 1 (Homo sapiens, UniProt P09874); assay: Inhibition of PARP1 (unknown origin) using histone as substrate incubated for 60 mins by ELISA
[18] = Induction of depolarization of mitochondrial membrane potential in human MDA-MB-231 cells at 5 uM incubated for 24 hrs by JC-1 staining based flow cytometry relative to control; type: functional
MDA-MB-231 [19] = assay: Induction of apoptosis in human MDA-MB-231 cells assessed as increase in Bax level at 5 uM incubated for 24 hrs by Western blot analysis; type: functional, cell-based
MDA-MB-231 [20] = assay: Induction of DNA damage in human MDA-MB-231 cells assessed as increase in olive tail moments at 5 uM incubated for 24 hrs by Comet assay; type: functional, cell-based
MDA-MB-231 [21] = assay: […] activity in human MDA-MB-231 cells at 1 uM incubated for 24 hrs by wound healing assay; type: functional, cell-based
MDA-MB-231 [22] = assay: Effect on ERK1/2 phosphorylation in human MDA-MB-231 cells at 5 uM incubated for 24 hrs by Western blot analysis; type: functional, cell-based

Poly [ADP-ribose] polymerase 1, sequence (P09874 whole entry): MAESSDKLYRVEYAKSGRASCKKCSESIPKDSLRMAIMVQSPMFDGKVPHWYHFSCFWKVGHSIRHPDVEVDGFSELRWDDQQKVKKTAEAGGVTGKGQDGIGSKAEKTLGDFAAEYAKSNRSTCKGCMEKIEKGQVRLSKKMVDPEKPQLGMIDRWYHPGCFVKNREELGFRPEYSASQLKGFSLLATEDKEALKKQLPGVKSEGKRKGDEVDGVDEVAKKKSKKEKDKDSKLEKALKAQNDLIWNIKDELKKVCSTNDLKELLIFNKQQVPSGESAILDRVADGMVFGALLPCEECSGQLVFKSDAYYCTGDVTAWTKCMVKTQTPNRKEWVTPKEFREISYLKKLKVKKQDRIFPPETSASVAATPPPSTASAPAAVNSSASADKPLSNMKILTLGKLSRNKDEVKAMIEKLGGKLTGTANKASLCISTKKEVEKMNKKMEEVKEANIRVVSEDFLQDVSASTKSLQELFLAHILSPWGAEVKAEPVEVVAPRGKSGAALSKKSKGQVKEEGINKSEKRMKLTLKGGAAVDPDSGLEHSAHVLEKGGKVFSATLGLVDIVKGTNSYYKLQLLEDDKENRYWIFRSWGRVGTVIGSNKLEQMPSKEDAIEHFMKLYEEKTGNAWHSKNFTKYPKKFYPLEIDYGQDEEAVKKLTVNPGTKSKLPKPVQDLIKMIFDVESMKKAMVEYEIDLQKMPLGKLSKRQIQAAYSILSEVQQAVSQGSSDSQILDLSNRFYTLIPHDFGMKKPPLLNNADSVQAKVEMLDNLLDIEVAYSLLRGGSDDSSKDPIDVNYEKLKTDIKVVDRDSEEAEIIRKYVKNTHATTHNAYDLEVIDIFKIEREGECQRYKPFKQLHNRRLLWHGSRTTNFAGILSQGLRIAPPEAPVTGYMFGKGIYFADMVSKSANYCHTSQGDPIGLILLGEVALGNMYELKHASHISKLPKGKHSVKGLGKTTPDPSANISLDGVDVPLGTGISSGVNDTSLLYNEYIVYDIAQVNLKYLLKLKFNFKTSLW

SMILES	pIC50 (HCC1937)	pIC50 (MDA-MB-436)	pIC50 (MDA-MB-468)	pIC50 (MDA-MB-231 [6])	IC50 at 72 h [4] [µM]	other results
COc1cc(OC)c(/C=C/S(=O)(=O)Cc2ccc(OC)c(NC(=O)CCCCC(=O)O)c2)c(OC)c1	5.28	5.15	5.16	5.16	> 40	
COc1cc(OC)c(/C=C/S(=O)(=O)Cc2ccc(OC)c(NCCCCCC(=O)O)c2)c(OC)c1	5.32	5.49	5.27	5.64	> 40	
COc1cc(OC)c(/C=C/S(=O)(=O)Cc2ccc(OC)c(NCC(=O)O)c2)c(OC)c1 [RIGOSERTIB]	6.48	6.60	6.35	6.64	18.4	

Now from value to molecule, other results behind:

pIC50 (HCC1937)	pIC50 (MDA-MB-436)	pIC50 (MDA-MB-468)	pIC50 (MDA-MB-231 [6])	SMILES	IC50 at 72 h [4] [µM]	other results
5.27	5.37	4.83	4.59	O=C(c1cc(Cc2n[nH]c(=O)c3ccccc23)ccc1F)N1CCN(C(=O)C2CC2)CC1 [OLAPARIB]	> 40	Activity [1]: Non-Toxic; Activity [2]: Non-Toxic; Activity (MDA-MB-231 [3]): Active; Activity (MDA-MB-231 [5]): Active; Activity (MDA-MB-231 [7]): Active
5.51	5.66	5.34	5.57	COc1cc(OC)c(/C=C/S(=O)(=O)Cc2ccc(OC)c(NCCCCCC(=O)N3CCN(C(=O)c4cc(Cc5n[nH]c(=O)c6ccccc56)ccc4F)CC3)c2)c(OC)c1	> 40	
5.43	5.42	5.31	5.34	COc1cc(OC)c(/C=C/S(=O)(=O)Cc2ccc(OC)c(NC(=O)CCCCC(=O)N3CCN(C(=O)c4cc(Cc5n[nH]c(=O)c6ccccc56)ccc4F)CC3)c2)c(OC)c1	> 40	
5.49	5.58	4.91	4.68	O=C(c1cc(Cc2n[nH]c(=O)c3ccccc23)ccc1F)N1CCNCC1	> 40	Activity (MDA-MB-231 [8]): 66.1%; Activity (MDA-MB-231 [9]): inactive; Activity (MDA-MB-231 [10]): 21.14%; Activity (MDA-MB-231 [11]): inactive; Activity (MDA-MB-231 [12]): Active; Activity (MDA-MB-231 [13]): inactive; Activity (MDA-MB-231 [14]): inactive; Activity (MDA-MB-231 [15]): inactive; Activity (MDA-MB-231 [16]): inactive; pIC50 [17]: 7.40; Activity [18]: 23.88%; Activity (MDA-MB-231 [19]): Active; Activity (MDA-MB-231 [20]): inactive; Activity (MDA-MB-231 [21]): inactive; Activity (MDA-MB-231 [22]): inactive
